# Read-outs that look alike come from different tables or passages of the source. Positions of bridges follow the written chain, without caps; N, C: chain ends. Non-standard residues stand in square brackets, D forms with d. Residues, ends and D or L forms follow the SMILES beside them. ξ: configuration not given here. Phe(4-CH2NH2) = NCc1ccc(C[C@H](N)C(=O)O)cc1; Phe(4-F) = N[C@@H](Cc1ccc(F)cc1)C(=O)O; d(cisHyp) = O=C(O)[C@H]1C[C@@H](O)CN1; Bta = N[C@@H](Cc1csc2ccccc12)C(=O)O; cisHyp = O=C(O)[C@@H]1C[C@H](O)CN1; Hyp = O=C(O)[C@@H]1C[C@@H](O)CN1; NMeF = CN[C@@H](Cc1ccccc1)C(=O)O; NMehSer = CN[C@@H](CCO)C(=O)O; NMeNle = CCCC[C@H](NC)C(=O)O; NMeM = CN[C@@H](CCSC)C(=O)O; NMeA = CN[C@@H](C)C(=O)O; Dab = NCC[C@H](N)C(=O)O; Dap = NC[C@H](N)C(=O)O; ξC = NC(CS)C(=O)O; Sar = CNCC(=O)O
# What was measured:
# Human PD-L1/PD-1 = target: T1, Human PD-L1/PD-1 (Homo sapiens, UniProt Q9NZQ7); assay: HTRF PD-1-Ig/PD-L1-His binding assay (human PD-L1); settings: cluster symbol; read-out: HTRF IC50 cluster
# T1 construct: made in house; host or cells: HEK293T
# T1 sequence (Q9NZQ7 with tags, fused parts or gaps): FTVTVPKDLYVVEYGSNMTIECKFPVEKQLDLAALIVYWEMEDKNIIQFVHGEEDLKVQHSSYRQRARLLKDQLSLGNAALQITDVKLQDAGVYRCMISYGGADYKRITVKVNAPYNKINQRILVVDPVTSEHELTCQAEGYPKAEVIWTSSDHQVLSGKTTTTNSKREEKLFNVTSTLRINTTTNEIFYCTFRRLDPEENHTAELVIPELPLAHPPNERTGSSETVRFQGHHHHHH
# In short: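 Readout: time-resolved FRET between Eu cryptate-labeled anti-Ig (1 nM final) and APC-labeled anti-His (20 nM final) antibodies. These detect interaction of Fc-fused PD-1 with His-tagged human PD-L1 in dPBS containing 0.1% BSA and 0.05% Tween-20.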
# [1] = target: T2, LK35.2-hPD-L1 cells / PE-labeled PD-1-Ig (Homo sapiens, UniProt Q9NZQ7); assay: LK35.2-hPD-L1 cell binding high-content screening assay; format: cell-based; settings: cluster symbol, read-out: CBA IC50 cluster
# T2 construct: expressed in transfected cells; host or cells: LK35.2 mouse B cell line
# T2 sequence (Q9NZQ7 19-290): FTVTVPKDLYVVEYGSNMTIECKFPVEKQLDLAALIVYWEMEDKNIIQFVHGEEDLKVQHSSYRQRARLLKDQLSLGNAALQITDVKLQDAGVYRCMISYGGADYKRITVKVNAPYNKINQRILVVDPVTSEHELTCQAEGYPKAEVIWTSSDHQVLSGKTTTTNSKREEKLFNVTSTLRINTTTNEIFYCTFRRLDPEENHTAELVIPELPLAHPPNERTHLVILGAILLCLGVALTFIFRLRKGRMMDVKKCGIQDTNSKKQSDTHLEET
# In short: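 Readout: high-content imaging of PE-PD-1-Ig bound to LK35.2-hPD-L1 cells. Cells plated overnight (RPMI/10% FCS); compound + 1 nM PE-PD-1-Ig, 1 h, 37 °C; 3× dPBS wash before imaging.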
# [2] = cell line of CBA not given (LK35.2-hPD-L1 or 293T-hPD-L1)
# [3] = cell binding assay, cell line not given
SMILES,IC50 (Human PD-L1/PD-1),"IC50 [1, 2]","IC50 [1, 3]"
"CCCC[C@H]1C(=O)N2CCC[C@@H]2C(=O)N[C@@H](CCCCN)C(=O)N[C@@H](C(C)C)C(=O)N(C)[C@@H](Cc2ccccc2)C(=O)N[C@@H](CCC(=O)O)C(=O)N2CCC[C@@H]2C(=O)N[C@@H](Cc2c[nH]c3ccccc23)C(=O)N[C@@H](Cc2ccc(O)cc2)C(=O)N[C@@H](CC(C)C)C(=O)N[C@H](C(=O)NCC(N)=O)CSCC(=O)N[C@@H](Cc2ccccc2)C(=O)N(C)[C@@H](Cc2ccccc2)C(=O)N1C [Example 3190] (HELM PEPTIDE1{[O=C(C[*:3])[*:2]].F.[meF].[CCCC[C@@H](C(=O)[*:2])N(C)[*:1]].[dP].K.V.[meF].E.[dP].W.Y.L.C.G.[am]}$PEPTIDE1,PEPTIDE1,1:R3-14:R3$$$V2.0)",0.385 to 6.74 nM,0.158 to 4.71 nM,
CCCC[C@H]1C(=O)N[C@@H](CCCNC(=N)N)C(=O)NC(C(=O)NCC(N)=O)CSCC(=O)N[C@@H](Cc2ccc(O)cc2)C(=O)N(C)[C@@H](C)C(=O)N[C@@H](CC(N)=O)C(=O)N2CCC[C@H]2C(=O)N[C@@H](CN)C(=O)N[C@@H](CC(C)C)C(=O)N2CCC[C@H]2C(=O)N[C@@H](Cc2c[nH]c3ccccc23)C(=O)N[C@@H](CO)C(=O)N[C@@H](Cc2c[nH]c3ccccc23)C(=O)N(C)[C@@H](CCSC)C(=O)N1C (stereo partly shown) [Example 9089] ({CH2CO}-Y[NMeA]NP[Dap]LPWSW[NMeM][NMeNle]R[ξC]G-NH2; thioether N-14),0.385 to 6.74 nM,,0.158 to 4.71 nM
CCCC[C@H]1C(=O)N(C)[C@@H](CCCC)C(=O)N[C@@H](C)C(=O)N[C@H](C(=O)NCC(N)=O)CSCC(=O)N[C@@H](Cc2ccc(O)cc2)C(=O)N2CCC[C@H]2C(=O)N[C@@H](CC(=O)O)C(=O)N2CCC[C@H]2C(=O)N[C@@H](CN)C(=O)N[C@@H](CC(C)C)C(=O)N2C[C@@H](O)C[C@H]2C(=O)N[C@@H](Cc2c[nH]c3ccccc23)C(=O)N[C@@H](CCN)C(=O)N[C@@H](Cc2c[nH]c3ccccc23)C(=O)N1C [Example 1150] ({CH2CO}-YPDP[Dap]L[cisHyp]W[Dab]W[NMeNle][NMeNle]ACG-NH2; thioether N-14),0.385 to 6.74 nM,0.158 to 4.71 nM,
CCCC[C@H]1C(=O)N(C)CC(=O)N[C@@H](CC(=O)O)C(=O)N[C@@H](C(C)C)C(=O)N(C)[C@@H](Cc2ccccc2)C(=O)N[C@@H](Cc2ccc(CN)cc2)C(=O)N(C)CC(=O)N[C@@H](Cc2csc3ccccc23)C(=O)N[C@@H](Cc2ccc(O)cc2)C(=O)N[C@@H](CC(C)C)C(=O)N[C@H](C(=O)NCC(N)=O)CSCC(=O)N[C@@H](Cc2ccc(F)cc2)C(=O)N(C)[C@@H](Cc2ccccc2)C(=O)N1C [Example 3120] ({CH2CO}-[Phe(4-F)][NMeF][NMeNle][Sar]DV[NMeF][Phe(4-CH2NH2)][Sar][Bta]YLCG-NH2; thioether N-13),6.76 to 30.3 nM,0.158 to 4.71 nM,
CCCC[C@H]1C(=O)N(C)[C@@H](CCCC)C(=O)N[C@@H](CCCNC(=N)N)C(=O)N[C@H](C(=O)NCC(N)=O)CSCC(=O)N[C@@H](Cc2ccccc2)C(=O)N(C)[C@@H](C)C(=O)N[C@@H](CC(N)=O)C(=O)N2CCC[C@H]2C(=O)N[C@@H](CO)C(=O)N[C@@H](CC(C)C)C(=O)N(C)CC(=O)N[C@@H](Cc2c[nH]c3ccccc23)C(=O)N[C@@H](CO)C(=O)N[C@@H](Cc2c[nH]c3ccccc23)C(=O)N1C [Example 1088] ({CH2CO}-F[NMeA]NPSL[Sar]WSW[NMeNle][NMeNle]RCG-NH2; thioether N-14),6.76 to 30.3 nM,4.78 to 72.9 nM,

# Second part, the compound after the results:
IC50 (Human PD-L1/PD-1),"IC50 [1, 2]","IC50 [1, 3]",SMILES
0.385 to 6.74 nM,4.78 to 72.9 nM,,CCCC[C@H]1C(=O)N(C)[C@@H](CCCC)C(=O)N[C@@H](C)C(=O)N[C@H](C(=O)NCC(N)=O)CSCC(=O)N[C@@H](Cc2ccc(O)cc2)C(=O)N(C)[C@@H](C)C(=O)N[C@@H](CC(N)=O)C(=O)N2CCC[C@H]2C(=O)N[C@@H](CN)C(=O)N[C@@H](CC(=O)O)C(=O)N2C[C@H](O)C[C@H]2C(=O)N[C@@H](Cc2c[nH]c3ccccc23)C(=O)N[C@@H](CO)C(=O)N[C@@H](Cc2c[nH]c3ccccc23)C(=O)N1C [Example 1170] ({CH2CO}-Y[NMeA]NP[Dap]D[Hyp]WSW[NMeNle][NMeNle]ACG-NH2; thioether N-14)
0.385 to 6.74 nM,,0.158 to 4.71 nM,CCCC[C@H]1C(=O)N(C)[C@@H](CCCC)C(=O)N[C@@H](CCCNC(=N)N)C(=O)NC(C(=O)NCC(N)=O)CSCC(=O)N[C@@H](Cc2ccc(O)cc2)C(=O)N(C)[C@@H](C)C(=O)N[C@@H](CC(N)=O)C(=O)N2CCC[C@H]2C(=O)N[C@@H](Cc2cnc[nH]2)C(=O)N[C@@H](CC(N)=O)C(=O)N2C[C@H](O)C[C@H]2C(=O)N[C@@H](Cc2c[nH]c3ccccc23)C(=O)N[C@@H](CO)C(=O)N[C@@H](Cc2csc3ccccc23)C(=O)N1C (stereo partly shown) [Example 9066] ({CH2CO}-Y[NMeA]NPHN[Hyp]WS[Bta][NMeNle][NMeNle]R[ξC]G-NH2; thioether N-14)
> 30.5 nM,> 74.3 nM,,CCCC[C@H]1C(=O)N(C)[C@@H](CCCC)C(=O)N[C@@H](CCCNC(=N)N)C(=O)N[C@H](C(=O)NCC(N)=O)CSCC(=O)N[C@@H](Cc2ccccc2)C(=O)N(C)[C@@H](C)C(=O)N[C@@H](CC(N)=O)C(=O)N2CCC[C@H]2C(=O)N[C@@H](Cc2cnc[nH]2)C(=O)N[C@@H](CC(C)C)C(=O)N[C@@H](CCC(N)=O)C(=O)N[C@@H](Cc2c[nH]c3ccccc23)C(=O)N[C@@H](CO)C(=O)N[C@@H](Cc2c[nH]c3ccccc23)C(=O)N1C [Example 1074] ({CH2CO}-F[NMeA]NPHLQWSW[NMeNle][NMeNle]RCG-NH2; thioether N-14)
0.385 to 6.74 nM,,0.158 to 4.71 nM,CCCC[C@H]1C(=O)N[C@@H](CCCNC(=N)N)C(=O)N[C@H](C(=O)NCC(N)=O)CSCC(=O)N[C@@H](Cc2ccc(O)cc2)C(=O)N(C)[C@@H](C)C(=O)N[C@@H](CC(N)=O)C(=O)N2CCC[C@H]2C(=O)N[C@@H](Cc2cnc[nH]2)C(=O)N[C@@H](CC(C)C)C(=O)N2C[C@H](O)C[C@@H]2C(=O)N[C@@H](Cc2c[nH]c3ccccc23)C(=O)N[C@@H](CO)C(=O)N[C@@H](Cc2csc3ccccc23)C(=O)N(C)[C@@H](CCOC)C(=O)N1C [Example 9007] ({CH2CO}-Y[NMeA]NPHL[d(cisHyp)]WS[Bta][NMehSer](Me)[NMeNle]RCG-NH2; thioether N-14)
0.385 to 6.74 nM,,4.78 to 72.9 nM,CCCC[C@H]1C(=O)N(C)[C@@H](C)C(=O)N[C@@H](CCCNC(=N)N)C(=O)NC(C(=O)NCC(N)=O)CSCC(=O)N[C@@H](Cc2ccc(O)cc2)C(=O)N(C)[C@@H](C)C(=O)N[C@@H](CC(N)=O)C(=O)N2CCC[C@H]2C(=O)N[C@@H](Cc2cnc[nH]2)C(=O)N[C@@H](CC(C)C)C(=O)N2CCC[C@H]2C(=O)N[C@@H](Cc2c[nH]c3ccccc23)C(=O)N[C@@H](CO)C(=O)N[C@@H](Cc2c[nH]c3ccccc23)C(=O)N1C (stereo partly shown) [Example 9054] ({CH2CO}-Y[NMeA]NPHLPWSW[NMeNle][NMeA]R[ξC]G-NH2; thioether N-14)
0.385 to 6.74 nM,,0.158 to 4.71 nM,CCCC[C@H]1C(=O)N(C)[C@@H](CCCC)C(=O)N[C@@H](CCCNC(=N)N)C(=O)NC(C(=O)NCC(N)=O)CSCC(=O)N[C@@H](Cc2ccc(O)cc2)C(=O)N(C)[C@@H](C)C(=O)N[C@@H](CC(N)=O)C(=O)N2CCC[C@H]2C(=O)N[C@@H](CC(N)=O)C(=O)N[C@@H](CC(C)C)C(=O)N2C[C@H](O)C[C@H]2C(=O)N[C@@H](Cc2c[nH]c3ccccc23)C(=O)N[C@@H](CO)C(=O)N[C@@H](Cc2csc3ccccc23)C(=O)N1C (stereo partly shown) [Example 9062] ({CH2CO}-Y[NMeA]NPNL[Hyp]WS[Bta][NMeNle][NMeNle]R[ξC]G-NH2; thioether N-14)
